{
  "source": "patent US20130040933A1",
  "about": "“AZAINDOLES AS JANUS KINASE INHIBITORS” (priority 2010, published 2013)",
  "data": [
    {"target": "T1, rhJAK3 (Homo sapiens, UniProt P52333)", "T1 construct": "recombinant purified GST-tagged catalytic domain for each enzyme; purchased Invitrogen PV3855", "T1 sequence (P52333 822-1111 limits assumed)": "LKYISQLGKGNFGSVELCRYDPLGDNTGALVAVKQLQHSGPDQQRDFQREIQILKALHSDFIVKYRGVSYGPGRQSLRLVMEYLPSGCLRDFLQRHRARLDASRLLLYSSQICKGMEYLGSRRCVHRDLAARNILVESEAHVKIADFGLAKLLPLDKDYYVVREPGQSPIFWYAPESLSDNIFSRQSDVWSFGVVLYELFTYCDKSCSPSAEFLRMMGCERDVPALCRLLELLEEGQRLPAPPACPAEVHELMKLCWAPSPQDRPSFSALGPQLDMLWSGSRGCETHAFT", "test": "JAK Biochemical HTRF Assay (JAK3)", "settings": "recombinant purified GST-tagged catalytic domain, HTRF format, [ATP] 1.7 μM; read-out: rhJAK3 IC50", "protocol": "JAK Biochemical HTRF Assay Protocol\nThe ability of compounds to inhibit the activity of JAK1, JAK2, JAK3, and TYK2 was measured using a recombinant purified GST-tagged catalytic domain for each enzyme (Invitrogen JAK1 #PV4774, JAK2 #PV4210, JAK3 #PV3855, TYK2 #PV4790) in an HTRF format biochemical assay. The reactions employed a common peptide substrate, LCB-EQEDEPEGDYFEWLW-NH2. The basic assay protocol is as follows: First, […] of diluted compounds in DMSO were dispensed into the wells of a dry 384-well Black plate (Greiner #781076) using a Labcyte Echo 555 acoustic dispenser. Subsequent reagent additions employed a Thermo Multidrop Combi nL. Next, 10 μL of 2× enzyme and 2× substrate in 1× assay buffer (Invitrogen kinase buffer #PV3189, 2 mM DTT, 0.05% BSA) were added to the wells and preincubated for 30 min at room temperature to allow compound binding to equilibrate. After equilibration, 10 μl, of 2×ATP in 1× assay buffer was added to initiate the kinase reaction and the plates were incubated at room temperature for 120 min. At the end of the incubation, 20 μL of 2× stop buffer containing streptavidin-Dylight (Thermo #21845) and Eu-tagged pY20 antibody (Perkin Elmer #AD0067) was added to quench the reaction. Plates were further incubated 60 min at room temperature with shaking and then read on a Perkin Elmer Envision (λex=337 nm, λem=665 and 615 nm, TRF delay time=20 μs). HTRF signal=10,000*665 nm reading/615 nm reading. After normalization to untreated controls, the percent inhibition of the HTRF signal at each compound concentration was calculated. The plot of percent inhibition vs. the log of compound concentration was fit with a 4-parameter dose response equation to calculate IC50 values.", "units": {"IC50": "nM"}, "values": [
      {"smiles": "Cc1cc(CNC(=O)[C@@H](C)Nc2cncc(-c3c[nH]c4ncc(Cl)cc34)n2)no1", "note": "[Example 2-6, N^2-[6-(5-chloro-1H-pyrrolo[2,3-b]-pyridin-3-yl)pyrazin-2-yl]-N-[(5 - methylisoxazol-3-yl)methyl]-D-alaninamide]", "IC50": "100 to 1000"},
      {"smiles": "C[C@@H](Nc1cncc(-c2c[nH]c3ncc(Cl)cc23)n1)C(=O)NCCc1cn[nH]c1", "note": "[Example 2-7, N^2-[6-(5-chloro-1H-pyrrolo[2,3-b]-pyridin-3-yl)pyrazin-2-yl]-N-[2-(1H-pyrazol-4-yl)ethyl]-D-alaninamide]", "IC50": "100 to 1000"},
      {"smiles": "C[C@@H](Nc1cncc(-c2c[nH]c3ncc(Cl)cc23)n1)C(=O)NCCC1CC1", "note": "[Example 2-8, N^2-[6-(5-chloro-1H-pyrrolo[2,3-b]-pyridin-3-yl)pyrazin-2-yl]-N-(2-cyclopropylethyl)-D-alaninamide]", "IC50": "10 to 100"},
      {"smiles": "CC(Cc1cccnc1)NC(=O)[C@@H](C)Nc1cncc(-c2c[nH]c3ncc(Cl)cc23)n1", "note": "(stereo partly drawn) [Example 2-9, N^2-[6-(5-chloro-1H-pyrrolo[2,3-b]-pyridin-3-yl)pyrazin-2-yl]-N-(l - methyl-2-pyridin-3-ylethyl)-D-alaninamide]", "IC50": "100 to 1000"},
      {"smiles": "C[C@@H](Nc1cncc(-c2c[nH]c3ncc(Cl)cc23)n1)C(=O)NCc1cccs1", "note": "[Example 2-10, N^2-[6-(5-chloro-1H-pyrrolo[2,3-b]-pyridin-3-yl)pyrazin-2-yl]-N-(thiophen-2-ylmethyl)-D-alaninamide]", "IC50": "100 to 1000"},
      {"smiles": "C[C@@H](Nc1cncc(-c2c[nH]c3ncc(Cl)cc23)n1)C(=O)NCC(=O)N(C)C", "note": "[Example 2-11, N-[6-(5-chloro-1H-pyrrolo[2,3-b]-pyridin-3-yl)pyrazin-2-yl]-D-alanyl-N,N-dimethylglycinamide]", "IC50": "100 to 1000"},
      {"smiles": "C[C@@H](Nc1cncc(-c2c[nH]c3ncc(Cl)cc23)n1)C(=O)N1CCC(F)(F)CC1", "note": "[Example 2-12, 6-(5-chloro-1H-pyrrolo[2,3-b]-pyridin-3-yl)-N-[(1R)-2-(4,4-difluoropiperidin-1-yl)-1-methyl-2-oxoethyl]pyrazin-2-amine]", "IC50": "100 to 1000"},
      {"smiles": "C[C@@H](Nc1cncc(-c2c[nH]c3ncc(Cl)cc23)n1)C(=O)NC1CCCCNC1=O", "note": "(stereo partly drawn) [Example 2-13, N^2-[6-(5-chloro-1H-pyrrolo[2,3-b]-pyridin-3-yl)pyrazin-2-yl]-N-(2-oxoazepan-3-yl)-D-alaninamide]", "IC50": "100 to 1000"},
      {"smiles": "C[C@@H](Nc1cncc(-c2c[nH]c3ncc(Cl)cc23)n1)C(=O)NCc1ccc(N)cc1", "note": "[Example 2-14, N-(4-aminobenzyl)-N^2-[6-(5-chloro-1H-pyrrolo[2,3-b]pyridin-3-yl)pyrazin-2-yl]-D-alaninamide]", "IC50": "100 to 1000"},
      {"smiles": "C[C@@H](Nc1cncc(-c2c[nH]c3ncc(Cl)cc23)n1)C(=O)NCCc1cccs1", "note": "[Example 2-15, N^2-[6-(5-chloro-1H-pyrrolo[2,3-b]-pyridin-3-yl)pyrazin-2-yl]-N-(2-thiophen-2-ylethyl)-D-alaninamide]", "IC50": "100 to 1000"},
      {"smiles": "C[C@@H](Nc1cncc(-c2c[nH]c3ncc(Cl)cc23)n1)C(=O)NCC(=O)NC1CCCC1", "note": "[Example 2-16, N-[6-(5-chloro-1H-pyrrolo[2,3-b]-pyridin-3-yl)pyrazin-2-yl]-D-alanyl-N-cyclopentylglycinamide]", "IC50": "100 to 1000"},
      {"smiles": "C[C@@H](Nc1cncc(-c2c[nH]c3ncc(Cl)cc23)n1)C(=O)NC1CCC1", "note": "[Example 2-17, N^2-[6-(5-chloro-1H-pyrrolo[2,3-b]-pyridin-3-yl)pyrazin-2-yl]-N-cyclo-butyl-D-alaninamide]", "IC50": "10 to 100"},
      {"smiles": "C[C@@H](Nc1cncc(-c2c[nH]c3ncc(Cl)cc23)n1)C(=O)N[C@H](CO)Cc1ccc(O)cc1", "note": "[Example 2-18, N^2-[6-(5-chloro-1H-pyrrolo[2,3-b]-pyridin-3-yl)pyrazin-2-yl]-N-[(1S)-2-hydroxy-1-(4-hydroxybenzyl)-ethyl]-D-alaninamide]", "IC50": "100 to 1000"},
      {"smiles": "C[C@@H](Nc1cncc(-c2c[nH]c3ncc(Cl)cc23)n1)C(=O)N1CCN(CC(F)(F)F)CC1", "note": "[Example 2-19, 6-(5-chloro-1H-pyrrolo[2,3-b]-pyridin-3-yl)-N-{(1R)-1-methyl-2-oxo-2-[4-(2,2,2-trifluoroethyl)-piperazin-1-yl]ethyl}pyrazin-2-amine]", "IC50": "100 to 1000"},
      {"smiles": "C[C@@H](Nc1cncc(-c2c[nH]c3ncc(Cl)cc23)n1)C(=O)NCCCN1CCS(=O)(=O)CC1", "note": "[Example 2-20, N^2-[6-(5-chloro-1H-pyrrolo[2,3-b]-pyridin-3-yl)pyrazin-2-yl]-N-[3-(1,1-dioxidothiomorpholin-4-yl)-propyl]-D-alaninamide]", "IC50": "100 to 1000"},
      {"smiles": "C[C@@H](Nc1cncc(-c2c[nH]c3ncc(Cl)cc23)n1)C(=O)NCc1ccc(C(F)(F)F)cc1", "note": "[Example 2-21, N^2-[6-(5-chloro-1H-pyrrolo[2,3-b]-pyridin-3-yl)pyrazin-2-yl]-N-[4-(trifluoromethyl)benzyl]-D-alaninamide]", "IC50": "100 to 1000"},
      {"smiles": "C[C@H](Nc1cncc(-c2c[nH]c3ncc(Cl)cc23)n1)C(=O)NCCC(F)(F)F", "note": "[Example 2-22, N^2-[6-(5-chloro-1H-pyrrolo[2,3-b]-pyridin-3-yl)pyrazin-2-yl]-N-(3,3,3-trifluoropropyl)-L-alaninamide]", "IC50": "10 to 100"},
      {"smiles": "CC(C)CNC(=O)[C@H](C)Nc1cncc(-c2c[nH]c3ncc(Cl)cc23)n1", "note": "[Example 2-23, N^2-[6-(5-chloro-1H-pyrrolo[2,3-b]-pyridin-3-yl)pyrazin-2-yl]-N-(2-methylpropyl)-L-alaninamide]", "IC50": "10 to 100"},
      {"smiles": "C[C@H](Nc1cncc(-c2c[nH]c3ncc(Cl)cc23)n1)C(=O)NCC(C)(C)C", "note": "[Example 2-24, N^2-[6-(5-chloro-1H-pyrrolo[2,3-b]-pyridin-3-yl)pyrazin-2-yl]-N-(2,2-dimethylpropyl)-L-alaninamide]", "IC50": "100 to 1000"},
      {"smiles": "O=C(NCC(F)(F)F)C1(Nc2cncc(-c3c[nH]c4ncc(Cl)cc34)n2)CCCC1", "note": "[Example 2-25, 1-{[6-(5-chloro-1H-pyrrolo[2,3-b]pyridin-3-yl)pyrazin-2-yl]amino}-N-(2,2,2-trifluoroethyl)cyclopentanecarboxamide]", "IC50": "≤ 1"},
      {"smiles": "O=C(NCCC(F)(F)F)C1(Nc2cncc(-c3c[nH]c4ncc(Cl)cc34)n2)CCCC1", "note": "[Example 2-26, 1-{[6-(5-chloro-1H-pyrrolo[2,3-b]pyridin-3-yl)pyrazin-2-yl]amino}-N-(3,3,3-trifluoropropyl)cyclopentanecarboxamide]", "IC50": "100 to 1000"},
      {"smiles": "O=C(NCC(F)(F)F)[C@@H]1[C@@H](O)CN1c1cncc(-c2c[nH]c3ncc(Cl)cc23)n1", "note": "[Example 3, (2S,3S)-1-[6-(5-Chloro-1H-pyrrolo[2,3-b]pyridin-3-yl)pyrazin-2-yl]-3-hydroxy-N-(2,2,2-trifluoroethyl)azetidine-2-carboxamide]", "IC50": "1 to 10"},
      {"smiles": "CS(=O)(=O)N1CCN(c2cncc(-c3c[nH]c4ncc(Cl)cc34)n2)[C@@H](C(=O)NCC(F)(F)F)C1", "note": "[Example 4, (2R)-1-[6-(5-Chloro-1H-pyrrolo[2,3-b]pyridin-3-yl)pyrazin-2-yl]-4-methylsulfonyl-N-(2,2,2-trifluoroethyl)piperazine-2-carboxamide]", "IC50": "1 to 10"},
      {"smiles": "CC(=O)N1CCN(c2cncc(-c3c[nH]c4ncc(Cl)cc34)n2)[C@@H](C(=O)NCC(F)(F)F)C1", "note": "[Example 4-2, (2R)-4-acetyl-1-[6-(5-chloro-1H-pyrrolo-[2,3-b]pyridin-3-yl)pyrazin-2-yl]-N-(2,2,2-trifluoroethyl)piperazine-2-carboxamide]", "IC50": "1 to 10"}
    ]}
  ]
}
